Experimental data: patent US20100305068A1, “COMPOUNDS AND METHODS FOR MODULATING PROTEIN TRAFFICKING” (priority 2006, published 2010)
Read-outs that look alike come from different tables or passages of the source.

System: pdr5 ypt1^ts cells
Assay: microbe, parasite or virus in culture
Assay type: cell-based, yeast
Details: for minimal effective concentration: Saccharomyces cerevisiae, read-out: ypt1-ts MRC (minimal rescue concentration); for optical density, ypt1-ts, 0.39: 0.39 μM compound; for optical density, ypt1-ts, 0.39 / optical density, ypt1-ts, 0.78 / optical density, ypt1-ts, 1.56 / optical density, ypt1-ts, 3.13 / optical density, ypt1-ts, 6.25 / optical density, ypt1-ts, 12.5 / optical density, ypt1-ts, 25: background (0 μM) 0.058; for optical density, ypt1-ts, 0.78: 0.78 μM compound; for optical density, ypt1-ts, 1.56: 1.56 μM compound; for optical density, ypt1-ts, 3.13: 3.13 μM compound; for optical density, ypt1-ts, 6.25: 6.25 μM compound; for optical density, ypt1-ts, 12.5: 12.5 μM compound; for optical density, ypt1-ts, 25: 25 μM compound
Text: The activity of the compounds as modulators of protein trafficking may be measured in the assays described herein that evaluate the ability of a compound to rescue an impairment in protein trafficking. For example, the yeast mutant cell line ypt1^ts can be used to identify compounds that rescue cells from the lethal phenotype of a mutant YPT1 allele (see, e.g., Examples and Schmitt et al. (1988) Cell 53:635-47). The activity may be measured, for example, in a whole yeast cell assay using 384-well screening protocol and an optical density measurement.
The yeast mutant cell line ypt1^ts suppresses, in a temperature dependent fashion, the dominant-lethal phenotype of a mutant YPT1 allele (Schmitt et al. (1988) Cell 53:635-47). ypt1^ts cells grow normally at temperatures up to 30° C., but are growth arrested at 37° C. (Id.).
A library of compounds (“The Spectrum Collection”) obtained from Microsource Discovery Systems, Inc. (Gaylordsville, Conn.) was screened to assess the ability of individual compounds to restore growth of ypt1^ts cells. Screening was carried out using ypt1^ts cells containing a mutation in the pdr5 gene (resulting in inactivation of a membrane efflux pump). The effect of the compounds was measured in pdr5 ypt1^ts cells cultured at 37° C.

[1] = Table 3, 3.13 uM compound, 37° C., background (0 uM) 0.077
[2] = Table 3, 12.5 uM compound, 37° C., background (0 uM) 0.077
[3] = Table 3, 50 uM compound, 37° C., background (0 uM) 0.077
[4] = Table 2, lowest concentration tested giving growth above the 0 μM background, 37° C.

C[C@]12CCC(=O)C[C@@H]1CC[C@@H]1[C@@H]2CC[C@]2(C)C(=O)CC[C@@H]12 [5alpha- ANDROSTAN- 3,17-DIONE]
optical density, 3.13 uM: 0.11
optical density, 12.5 uM: 0.16
optical density, 50 uM: 0.319

C=C1C([C@@]2(C)[C@@H](C)CC(=O)C(C)(C)[C@@H]2C(OC(C)=O)C(=O)OC)CC[C@@]2(C)[C@H](c3ccoc3)OC(=O)C[C@]12O (some centres unmarked) [6-ACETOXY- […] METHYL ESTER]
optical density, 3.13 uM [1]: 0.131
optical density, 12.5 uM [2]: 0.364
optical density, 50 uM [3]: 0.489

C=C1C2CC[C@@]3(C)[C@H](c4ccoc4)OC(=O)C[C@]13O[C@H]1CC(=O)C(C)(C)[C@H](C(O)C(=O)OC)[C@@]21C (some centres unmarked) [6-HYDROXY- […] METHYL ESTER]
optical density, 3.13 uM [1]: 0.232
optical density, 12.5 uM [2]: 0.561
optical density, 50 uM [3]: 0.626

COc1ccc2c(=O)cc(-c3ccccc3OC)oc2c1 [7,2′- DIMETHOXY- FLAVONE]
optical density, 3.13 uM [1]: 0.098
optical density, 12.5 uM [2]: 0.156
optical density, 50 uM [3]: 0.3

COc1ccc(-c2coc3cc(OC)ccc3c2=O)cc1 [7,4′- DIMETH- OXYISO- FLAVONE]
optical density, 3.13 uM [1]: 0.222
optical density, 12.5 uM [2]: 0.551
optical density, 50 uM [3]: 0.513

CC1(C)C(=O)C=C[C@@]2(C)C1CC(=O)[C@@]1(C)C3=CC(=O)O[C@@H](c4ccoc4)[C@]3(C)CCC12 (some centres unmarked) [7-DEACETOXY- 7-OXODEOXY- GEDUNIN]
optical density, 3.13 uM [1]: 0.335
optical density, 12.5 uM [2]: 0.604
optical density, 50 uM [3]: 0.67

CC1(C)C(=O)C=C[C@]2(C)[C@H]3CC[C@@]4(C)[C@H](c5ccoc5)OC(=O)[C@H]5O[C@]54[C@]3(C)C=C[C@@H]12 [7-DESACETOXY-6,7- DEHYDROGEDUNIN]
minimal effective concentration [4]: 12.5 µM
optical density, ypt1-ts, 0.39 (Table 2, 37° C.): 0.094
optical density, ypt1-ts, 0.78 (Table 2, 37° C.): 0.071
optical density, ypt1-ts, 1.56 (Table 2, 37° C.): 0.074
optical density, ypt1-ts, 3.13 (Table 2, 37° C.): 0.093
optical density, ypt1-ts, 6.25 (Table 2, 37° C.): 0.099
optical density, ypt1-ts, 12.5 (Table 2, 37° C.): 0.171
optical density, ypt1-ts, 25 (Table 2, 37° C.): 0.308

COc1ccc(-c2coc3c(OC)c(O)ccc3c2=O)cc1 [7-HYDROXY- 8,4′-DIMETH- OXYISO- FLAVONE]
optical density, 3.13 uM [1]: 0.121
optical density, 12.5 uM [2]: 0.151
optical density, 50 uM [3]: 0.398

COc1ccccc1-c1cc(=O)c2cccc(OC)c2o1 [8,2′- DIMETHOXY- FLAVONE]
optical density, 3.13 uM [1]: 0.083
optical density, 12.5 uM [2]: 0.234
optical density, 50 uM [3]: 0.674

COC(=O)C[C@H]1C(C)(C)C2(O)OC34CC2C(=O)[C@]1(C)C3CC[C@]1(C)C4=CC(=O)O[C@H]1c1ccoc1 (stereo partly drawn) [8beta- HYDROXY- CARAPIN, 3,8- HEMIACETAL]
optical density, 3.13 uM [1]: 0.151
optical density, 12.5 uM [2]: 0.383
optical density, 50 uM [3]: 0.486

Cc1ccc2c(c1)CC[C@H]1CC(=O)CC[C@]21C [13-METHYL- 4,4-BISNOR- 8,11,13- PODO- […]- 3-ONE]
optical density, 3.13 uM [1]: 0.082
optical density, 12.5 uM [2]: 0.152
optical density, 50 uM [3]: 0.424

COc1cccc2c1CCC1CC(=O)CC[C@]21C (some centres unmarked) [14-METHOXY-4,4- BISNOR-8,11,13- PODOCARPATRIEN-3- ONE]
minimal effective concentration [4]: 12.5 µM
optical density, ypt1-ts, 0.39 (Table 2, 37° C.): 0.088
optical density, ypt1-ts, 0.78 (Table 2, 37° C.): 0.074
optical density, ypt1-ts, 1.56 (Table 2, 37° C.): 0.075
optical density, ypt1-ts, 3.13 (Table 2, 37° C.): 0.088
optical density, ypt1-ts, 6.25 (Table 2, 37° C.): 0.096
optical density, ypt1-ts, 12.5 (Table 2, 37° C.): 0.191
optical density, ypt1-ts, 25 (Table 2, 37° C.): 0.48

COC(=O)C[C@H]1C(C)(C)C(=O)[C@@H]2CC3=C4CC(OC)O[C@@H](c5ccoc5)[C@]4(C)CCC3[C@@]1(C)C2=O (some centres unmarked) [16-DEOXO- MEXICANOLIDE 16-METHYL ETHER]
optical density, 3.13 uM [1]: 0.3
optical density, 12.5 uM [2]: 0.528
optical density, 50 uM [3]: 0.55

CC(C)c1ccc2c(c1)CCC1[C@](C)(CN)CCC[C@]21C.O=S(=O)(O)O (some centres unmarked) [18-AMINO ABIETA- 8,11,13- TRIENE SULFATE]
optical density, 3.13 uM [1]: 0.055
optical density, 12.5 uM [2]: 0.06
optical density, 50 uM [3]: 0.378

COc1ccc2cc([C@H](C)C(=O)O)ccc2c1 [(+)NAPROXEN, reference compound]
minimal effective concentration: 25 µM
